Results taken from patent US20040143009A1, “Amines, uses thereof” (L'OREAL, priority 2002, published 2004).

Key:
[1] = test system: rat-isolated phrenic nerve/diaphragm (striated muscle) preparation; assay: Nerve/muscle (motor plate) junction model, isolated phrenic nerve/diaphragm preparation; conditions: at 10^-4 M
Protocol: Compound 1 was tested on a nerve/muscle (motor plate) junction model obtained in a rat-isolated phrenic nerve/diaphragm (striated muscle) preparation (Pollard B. J. et al., Br. J. Anaesth., 1988, 61, 419-424).
(§1) This test is predictive of an antiwrinkle effect, as was verified by the applicant on diazepam, which is both active in vivo in humans and in this test at 10^−4 M.
The phrenic nerve and the diaphragm are carefully isolated and placed in a 50 ml tank filled with survival fluid (Krebs Henseleit fluid) kept at a temperature of 37° C. and oxygenated with an oxygen/CO2 (95/5) mixture.
Variations in the tension of the diaphragm are recorded with an initial preload of several grams.
After a relaxation period of 30 min, the diaphragm is indirectly stimulated by means of the phrenic nerve.
On each preparation, the effect of the test compound was evaluated on contractions induced by indirect stimulation via stimulation on the phrenic nerve (0.1 to 0.5 volts, 0.3 ms, 0.1 Hz). Alverine, known as a muscle-relaxing compound with antiwrinkle effect according to application FR-2 798 590, is used as control.

[2] = Antiwrinkle effect in vivo in humans
Text: as §1

With `CN1C(=O)CN=C(c2ccccc2)c2cc(Cl)ccc21` [diazepam] the “activity in the nerve/muscle junction test” value [1] was “active” and the “antiwrinkle activity in vivo in humans” value [2] was “active”.
